Laboratory results reported in the NIST ThermoML archive (doi:10.1016/j.jct.2008.01.003).

Assay: mn = molality of the nth substance listed, in mol/kg
Settings: 101 kPa, Liquid

CCCCCCn1cc[n+](C)c1.[Br-] [3-hexyl-1-methyl-1H-imidazolium bromide] + O
Settings	mass density, 283.15 K [kg/m3]	mass density, 288.15 K [kg/m3]	mass density, 293.15 K [kg/m3]	mass density, 298.15 K [kg/m3]	mass density, 303.15 K [kg/m3]	speed of sound, 283.15 K [m/s]	speed of sound, 288.15 K [m/s]	speed of sound, 293.15 K [m/s]	speed of sound, 298.15 K [m/s]	speed of sound, 303.15 K [m/s]
m1 = 0.0042	999.919	999.312	998.411	997.246	995.843	1448.7	1467	1483.2	1497.5	1509.8
m1 = 0.0048	999.941	999.334	998.432	997.266	995.864	1448.8	1467.1	1483.2	1497.5	1509.8
m1 = 0.0067	1000.03	999.423	998.518	997.351	995.948	1449.2	1467.4	1483.5	1497.7	1510.1
m1 = 0.0081	1000.1	999.485	998.579	997.413	996.006	1449.3	1467.4	1483.6	1497.7	1510.1
m1 = 0.0139	1000.38	999.762	998.85	997.679	996.267	1450.3	1468.4	1484.5	1498.6	1510.8
m1 = 0.0295	1001.15	1000.52	999.592	998.405	996.983	1452.9	1470.8	1486.7	1500.5	1512.6
m1 = 0.0369	1001.52	1000.88	999.946	998.754	997.324	1453.3	1471.1	1486.8	1500.6	1512.5
m1 = 0.0487	1002.1	1001.45	1000.5	999.3	997.863	1455.3	1473	1488.5	1502.2	1514
m1 = 0.064	1002.84	1002.17	1001.21	999.994	998.545	1457.9	1475.3	1490.7	1504.1	1515.7
m1 = 0.073	1003.27	1002.59	1001.62	1000.4	998.942	1459.4	1476.6	1491.9	1505.2	1516.7
m1 = 0.094	1004.29	1003.59	1002.6	1001.35	999.878	1462.8	1479.8	1494.8	1507.8	1519.2
m1 = 0.1183	1005.45	1004.72	1003.71	1002.44	1000.95	1466.9	1483.5	1498.2	1510.9	1522
m1 = 0.1423	1006.6	1005.85	1004.81	1003.53	1002.01	1470.9	1487.1	1501.4	1513.9	1524.7
m1 = 0.1639	1007.6	1006.82	1005.77	1004.47	1002.94	1474	1490	1504.1	1516.3	1526.9
m1 = 0.2206	1010.25	1009.42	1008.31	1006.95	1005.38	1482.7	1497.9	1511.2	1522.8	1532.7
m1 = 0.2581	1011.96	1011.09	1009.94	1008.55	1006.95	1488.1	1502.7	1515.6	1526.7	1536.2
m1 = 0.3034	1014.04	1013.11	1011.93	1010.5	1008.86	1494.6	1508.7	1521	1531.6	1540.7
m1 = 0.3543	1016.3	1015.32	1014.08	1012.61	1010.93	1501.6	1515	1526.7	1536.8	1545.3
m1 = 0.3874	1017.82	1016.8	1015.53	1014.03	1012.32	1506.1	1519.1	1530.4	1540.1	1548.2
m1 = 0.4492	1020.54	1019.46	1018.13	1016.57	1014.81	1513.7	1525.9	1536.4	1545.4	1552.9
m1 = 0.6269	1028.05	1026.78	1025.28	1023.56	1021.66	1535.2	1545.3	1553.8	1561	1566.8
m1 = 0.8614	1037.26	1035.74	1034.03	1032.12	1030.03	1557.7	1565.1	1571.3	1576.3	1580.2
m1 = 1.001	1042.28	1040.64	1038.8	1036.78	1034.6	1568.5	1574.6	1579.6	1583.5	1586.5
m1 = 1.321	1053.01	1051.1	1049.03	1046.8	1044.42	1586.3	1590.3	1593.4	1595.6	1596.9
m1 = 1.739	1065.23	1063.06	1060.74	1058.31	1055.74	1600	1602.5	1604.1	1604.8	1604.7
m1 = 2.087	1074.16	1071.82	1069.36	1066.78	1064.09	1607.4	1608.9	1609.6	1609.4	1608.4
